Laboratory results published in patent US12636370B2, “Combination therapy for treatment of cancer” (Institute For Cancer Research, priority 2019, dated 2026).

Experiments:
Assay type in all cases: cell-based
OVCAR5 JQ1-R cells = experiment: Growth curves, OVCAR5 JQ1-R cells
CDK9 [1] = target: T1, CDK9 (Homo sapiens, UniProt P50750); experiment: Western blot of CDK9 protein levels, OVCAR8 Thal-R cells; conditions: Thal 500 nM or 2 μM kinase inhibitor, 4 hours
T1 construct: OVCAR8 cells were treated with escalating doses of Thal SNS 032 and CDK9 protein levels were determined by Western blot; endogenous in cells; host or cells: OVCAR8 parental and Thal-R cells
T1 sequence (P50750 whole entry): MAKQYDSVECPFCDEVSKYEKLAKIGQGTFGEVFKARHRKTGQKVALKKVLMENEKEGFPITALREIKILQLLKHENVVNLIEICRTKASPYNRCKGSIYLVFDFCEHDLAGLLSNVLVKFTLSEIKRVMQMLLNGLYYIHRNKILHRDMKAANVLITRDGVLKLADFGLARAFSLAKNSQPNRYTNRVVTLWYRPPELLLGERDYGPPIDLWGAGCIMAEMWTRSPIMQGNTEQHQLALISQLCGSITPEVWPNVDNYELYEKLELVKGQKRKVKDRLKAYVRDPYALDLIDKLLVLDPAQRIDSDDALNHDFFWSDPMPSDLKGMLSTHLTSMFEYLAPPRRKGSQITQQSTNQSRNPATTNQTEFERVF
T1 sequence (O60563 whole entry partner): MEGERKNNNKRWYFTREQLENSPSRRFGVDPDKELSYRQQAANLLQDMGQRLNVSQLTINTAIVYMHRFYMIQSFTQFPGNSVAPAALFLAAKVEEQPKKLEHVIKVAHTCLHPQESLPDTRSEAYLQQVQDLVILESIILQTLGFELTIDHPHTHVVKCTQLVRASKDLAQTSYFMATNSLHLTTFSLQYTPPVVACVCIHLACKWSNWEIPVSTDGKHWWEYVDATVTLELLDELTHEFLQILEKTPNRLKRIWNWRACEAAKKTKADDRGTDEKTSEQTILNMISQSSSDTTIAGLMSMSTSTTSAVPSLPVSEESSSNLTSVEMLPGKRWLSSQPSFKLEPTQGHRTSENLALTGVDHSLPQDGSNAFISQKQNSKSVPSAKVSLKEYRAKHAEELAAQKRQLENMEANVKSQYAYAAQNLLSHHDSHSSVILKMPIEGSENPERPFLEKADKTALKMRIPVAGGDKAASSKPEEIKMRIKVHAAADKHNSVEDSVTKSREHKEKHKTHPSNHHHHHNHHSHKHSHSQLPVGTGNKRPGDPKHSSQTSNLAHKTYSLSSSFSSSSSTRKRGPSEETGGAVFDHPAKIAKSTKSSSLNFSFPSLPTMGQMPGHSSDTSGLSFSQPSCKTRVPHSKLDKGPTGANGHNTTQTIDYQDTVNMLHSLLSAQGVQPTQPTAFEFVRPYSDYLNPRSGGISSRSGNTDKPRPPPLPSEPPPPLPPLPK
Protocol: OVCAR8 cells were treated with escalating doses of Thal SNS 032 and CDK9 protein levels were determined by Western blot (FIG. 15A). […] Thal-R inhibitor treated cell viabilities were normalized to DMSO treated Thal-R cells. […] OVCAR8 cells were treated with 100 nM Thal SNS 032, escalating doses of GSK529A or RAD001, or the combination of Thal SNS 032 and kinase inhibitors, for 5 days and cell viability was assessed by CellTiter-Glo (FIGS. 15F and 15G).

[2] = system: BET proteins (BRD2, BRD3, BRD4); experiment: Western blot of BET proteins and BRD4 targets, OVCAR8 MZ1-R cells; conditions: for BET protein levels: Western blot
[3] = system: KURAMOCHI, COV362 and OVCAR5 MZ1-R cells; experiment: CellTiter-Glo cell viability, KURAMOCHI, COV362 and OVCAR5 MZ1-R cells; conditions: COV362 and OVCAR5, escalating doses, 5 days
[4] = system: INSR and downstream MTOR, AKT and MAPK signaling; experiment: Kinase signaling in BBD-R cells (MIB-MS, phospho-blot); conditions: for phosphorylation of P70S6K (T359): BBD-R cells (MZ1-R, ARV-R), 4 hours
Protocol: Reduced MIB-binding of kinases involved in cell cycle (WEE1, CHEK1, CDK2, CDK6 and PLK1), as well as kinases required for translation (EIF2AK1, EIF2AK2, and EIF2AK4) were also observed following GSK529A treatment. […] Enrichment maps of pathways repressed by INSR inhibition generated from MIB-MS profiles of OVCAR8 cells treated with GSK529A (1 μM) treatment for 48 hours. Statistical differences in protein log 2 LFQ z-scores comparing GSK529A to control treated MZ1-R cells was determined by paired T-Test Benjamini- Hochberg adjusted p values at FDR of <0.05 using Perseus Software. […] Enrichment maps were generated in Cytoscape using the Enrichment Map app v2.2.1. (data not shown).

DLD-1 cells [5] = experiment: Spheroid assay, DLD-1 cells; conditions: 2 μM RAD001, 1 nM dBET6
Protocol: Data were analyzed as % cell viability of DMSO control, presented as means of 3 independent assays.

OVCAR8 MZ1-R cells [6] = experiment: CellTiter-Glo cell viability, OVCAR8 MZ1-R cells; conditions: escalating doses, 5 days; for sensitivity of MZ1-R cells relative to JQ1-R cells or parental cells: OVCAR8, inhibitor screen
[7] = system: BET proteins (BRD2, BRD3, BRD4); experiment: Western blot of BET proteins, OVCAR8 ARV-R cells
KURAMOCHI cells = experiment: Combination cell viability, KURAMOCHI cells, CellTiter-Glo; conditions: 100 nM, 5 days
Excerpt: The proposed model of the protection of BRD4 from PROTAC-degradation by MTOR signaling in ovarian cancer cells is shown in FIG. 7J. PROTAC-mediated degradation of BRD4 induces RTK signaling resulting in increased MTOR signaling which prevents the degradation of BRD4 in cells resistant to BET PROTACs.

BRD2, BRD3 or BRD4 RNA = experiment: qRT-PCR of BRD RNA levels, OVCAR8 MZ1-R cells; conditions: 1 μM, 48 hours
OVCAR8 ARV-R cells = experiment: CellTiter-Glo cell viability, OVCAR8 ARV-R cells; conditions: escalating doses, 5 days
OVCAR8 Thal-R cells = experiment: CellTiter-Glo cell viability, OVCAR8 Thal-R cells; conditions: OVCAR8, escalating doses, 5 days
Protocol: (§1) Chronic exposure of OVCAR8 cells to CDK9 PROTAC (Thal SNS 032) sensitized cells to RAD001 or GSK1904529A. […] Moreover, these studies show both BET PROTACs and CDK9 PROTACs elicit a similar dependency on MTOR signaling to promote drug resistance. […] OVCAR8 cells were treated with escalating doses of Thal SNS 032 and CDK9 protein levels were determined by Western blot (FIG. 15A). […] (FIG. 15B). […] Thal-R inhibitor treated cell viabilities were normalized to DMSO treated Thal-R cells. Combination therapies involving GSK529A or RAD001 and Thal SNS 032 improved growth repression of OVCAR8 cells. OVCAR8 cells were treated with 100 nM Thal SNS 032, escalating doses of GSK529A or RAD001, or the combination of Thal SNS 032 and kinase inhibitors, for 5 days and cell viability was assessed by CellTiter-Glo (FIGS. 15F and 15G).

[8] = system: BET proteins (BRD2, BRD4); experiment: Western blot of BET proteins, KURAMOCHI, COV362 and OVCAR5 MZ1-R cells
OVCAR8 MZ1-R cells [9] = experiment: Apoptosis by Western blot, OVCAR8 MZ1-R cells
DLD-1 cells [10] = experiment: Cell-Titer Glo cell viability and drug synergy, DLD-1 cells
Protocol: Blockade of MTORC1 signaling sensitizes cancer cells resistant to BET-PROTACs. […] Data were analyzed as % cell viability of DMSO control, presented as means of 3 independent assays.

CDK9 [11] = target: T1, CDK9; experiment: Western blot of CDK9 protein levels, OVCAR8 cells; conditions: escalating doses
Protocol: as §1

[12] = system: BET proteins (BRD2, BRD3, BRD4); experiment: Western blot of BET protein levels, OVCAR8 parental cells
[13] = system: OVCAR8 parental, MZ1-R or ARV-R; experiment: 14-day colony formation assay, crystal violet staining; conditions: ARV-R or MZ1-R vs parental OVCAR8, 14-day
Protocol: Parental, JQ1-R or MZ1-R OVCAR8 cells were treated with escalating doses of MK2206 for 5 days and cell viability assessed by CellTiter-Glo. MZ1-R or JQ1-R inhibitor treated cell viabilities normalized to DMSO treated JQ1-R or MZ1-R cells, respectfully (FIG. 11J). […] Parental, JQ1-R or MZ1-R OVCAR8 cells were treated with escalating doses of LP-935509 for 5 days and cell viability assessed by CellTiter-Glo. MZ1-R or JQ1-R inhibitor treated cell viabilities normalized to DMSO treated JQ1-R or MZ1-R cells, respectfully (FIG. 11K). […] Long-term 14-day colony formation assay of OVCAR8 parental, MZ1-R or ARV-R were treated with escalating doses of GSK529A or DMSO. Colony formation was assessed by crystal violet staining (FIG. 11L).

BET proteins, FOSL1, MYC = experiment: Western blot of BET proteins and BRD4 targets, JQ1-R cells

Row | SMILES | growth inhibition (OVCAR5 JQ1-R cells) | CDK9 protein levels (CDK9 [1]) | BET protein levels [2] | cell viability / growth of MZ1-R cells compared with parental cells [3] | phosphorylation of P70S6K (T359) ([4]; 1 μM) | spheroid growth in 3D assays (DLD-1 cells [5]) | sensitivity of MZ1-R cells relative to JQ1-R cells or parental cells (OVCAR8 MZ1-R cells [6]) | cell viability / growth inhibition (KURAMOCHI cells) | BRD2, BRD3 or BRD4 RNA levels (BRD2, BRD3 or BRD4 RNA) | cell viability of ARV-R cells compared with parental cells (OVCAR8 ARV-R cells) | sensitivity of Thal-R cells relative to parental cells (OVCAR8 Thal-R cells) | BET protein levels [8] | apoptosis (OVCAR8 MZ1-R cells [9]) | also measured
1 | CO[C@H]1C[C@@H]2CC[C@@H](C)[C@@](O)(O2)C(=O)C(=O)N2CCCC[C@H]2C(=O)O[C@H]([C@H](C)C[C@@H]2CC[C@@H](OCCO)[C@H](OC)C2)CC(=O)[C@H](C)/C=C(\C)[C@@H](O)[C@@H](OC)C(=O)[C@H](C)C[C@H](C)/C=C/C=C/C=C/1C [RAD001] | minimal growth inhibition | downregulation of CDK9 | reduced BRD2 and BRD4 levels | significantly blocked cell growth to a greater extent than parental cells | reduced MTOR-mediated phosphorylation of P70S6K (T359) | ineffective | more sensitive | less effective | unaffected | reduced cell viability more than in parental cells | more sensitive | reduced BRD2 and BRD4 proteins |  | phosphorylated RNA pol II (S2) ([4]; OVCAR8 MZ1-R cells, 48 hour RAD001 treatment, with or without bortezomib): inhibition of phosphorylated RNA pol II (S2); BET protein levels [7]: reduced BRD2 and BRD4 levels
2 | Cc1sc2c(c1C)C(c1ccc(Cl)cc1)=N[C@@H](CC(=O)NCCCCCCCCNC(=O)COc1cccc3c1C(=O)N(C1CCC(=O)NC1=O)C3=O)c1nnc(C)n1-2 (stereo partly drawn) [dBET6] |  |  |  |  |  | ineffective |  | less effective |  | cross resistance |  |  | promoted apoptosis | cell viability of MZ1-R cells compared with parental cells (OVCAR8 MZ1-R cells [6]; OVCAR8 MZ1-R): inhibited cell viability; GI50 (DLD-1 cells [10]): > 1000 nM
3 | CC(C)(C)c1cnc(CSc2cnc(NC(=O)C3CCN(CC(=O)NCCOCCOCCOCCNc4cccc5c4C(=O)N(C4CCC(=O)NC4=O)C5=O)CC3)s2)o1 (stereo not drawn) [Thal SNS 032] |  | failed to degrade CDK9 |  |  |  |  |  |  |  |  |  |  |  | CDK9 protein levels (CDK9 [11]): reduction of CDK9 protein levels
4 | CCc1cc(Nc2nccc(-c3c(-c4ccc(OC)c(C(=O)Nc5c(F)cccc5F)c4)nc4ccccn34)n2)c(OC)cc1N1CCC(N2CCN(S(C)(=O)=O)CC2)CC1 [GSK1904529A] | minimal growth inhibition | downregulation of CDK9 | significantly reduced | significantly blocked cell growth to a greater extent than parental cells | reduced MTOR-mediated phosphorylation of P70S6K (T359) |  | more sensitive |  | unaffected | reduced cell viability more than in parental cells | more sensitive | reduced BRD2 and BRD4 proteins | induction of apoptosis | MYC protein levels ([2]; escalating doses, 48 hours): dose dependent reduction in MYC protein levels; BET protein levels [12]: did not reduce BET protein levels; kinase MIB-binding ([4]; OVCAR8 MZ1-R cells, 1 μM, 48 hours, MIB-MS): reduced MIB-binding of drug targets INSR and IGF1R; kinase activity by phospho-blot ([4]; OVCAR8 MZ1-R cells, escalating doses, 48 hours): Inhibition of INSR/IGF1R, MTOR, P70S6K, BRAF and ERK activity; colony formation [13]: inhibited colony formation to a greater extent than parental cells; BET protein levels (BET proteins, FOSL1, MYC): did not reduce BET protein levels
